Data: patent US20210309657A1, “TRICYCLIC COMPOUNDS FOR THE TREATMENT AND PROPHYLAXIS OF BACTERIAL INFECTION” (Hoffmann-La Roche Inc., priority 2018, published 2021)
Converted amounts (≈) assume the structure as drawn. Like-named read-outs stand apart in the source and are kept apart here.

Key:
A. baumannii (ATCC17978) = experiment: 50% growth inhibitory concentration (IC50) determination assay, A. baumannii; format: cell-based; conditions: Acinetobacter baumannii, growth inhibition, Iso-Sensitest broth, OD 600 nm over 16h, <0.098 = the detection limit
Description: (§1) The in vitro antimicrobial activity of the compounds against S. aureus (ATCC29213), K. pneumoniae (ATCC10031), and A. baumannii (ATCC17978), was determined according to the following procedure: The assay used a 10-points Iso-Sensitest broth medium to measure quantitatively the in vitro activity of the compounds against S. aureus ATCC29213, K. pneumoniae ATCC 10031, and A. baumannii ATCC17978. Stock compounds in DMSO were serially two-fold diluted (range from 50 to 0.097 μM final concentration) in 384 wells microtiter plates and inoculated with 49 μL the bacterial suspension in Iso-Sensitest broth medium to have a final cell concentration of ˜5×10^5 CFU/mL in a final volume/well of 50 μL/well. Microtiter plates were incubated at 35±2° C. Bacterial cell growth was determined with the measurement of optical density at λ=600 nm each 20 minutes over a time course of 16h. Growth inhibition was calculated during the logarithmic growth of the bacterial cells with determination of the concentration inhibiting 50% (IC50) of the growth. Compounds of the present invention were tested for their concentration inhibiting 50% (IC50). The data of IC50 over S. aureus (ATCC29213), K. pneumoniae (ATCC10031), and A. baumannii (ATCC17978) are illustrated in Table 4.

[1] = system: K. pneumoniae (ATCC10031); experiment: 50% growth inhibitory concentration (IC50) determination assay, K. pneumoniae; format: cell-based; conditions: Klebsiella pneumoniae, growth inhibition, Iso-Sensitest broth, OD 600 nm over 16h, <0.098 = the detection limit
Description: as §1

S. aureus (ATCC29213) = experiment: 50% growth inhibitory concentration (IC50) determination assay, S. aureus; format: cell-based; conditions: Staphylococcus aureus, growth inhibition, Iso-Sensitest broth, OD 600 nm over 16h, <0.098 = the detection limit
Description: as §1

[2] = Lyophilisation solubility assay (LYSA); format: physicochemical; conditions: thermodynamic from solid
Description: The solubility of compounds of present invention was assessed by LYSA assay. Samples were prepared in duplicate from 10 mM DMSO stock solutions ([…]) diluted in 30 μL pure DMSO. After evaporation of DMSO with a centrifugal vacuum evaporator, the residue was dissolved in 0.05 M phosphate buffer (150 μL, pH 6.5), which was stirred for one hour and shook for two hours. After one night, the solution was filtered using a microtiter filter plate. Then the filtrate and its 1/10 dilution were analyzed by HPLC-UV. In addition, a four-point calibration curve was prepared from the 10 mM stock solutions and used for the solubility determination of the compounds.

[3] = aqueous buffer, 0.05 M phosphate buffer, pH 6.5, HPLC-UV, <1.0 = the detection limit, read-out: Lysa

IC50 (A. baumannii (ATCC17978)) [nM]	IC50 [1] [nM]	IC50 (S. aureus (ATCC29213)) [nM]	solubility thermodynamic [2, 3] [µg/mL]	SMILES	solubility thermodynamic ([2]; pH 6.5, aqueous buffer) [µg/mL]
100	–	1240	16 (≈ 35.9 µM)	CNc1cc(F)c(F)c2c1[nH]c1ncc(-c3cncc(C#N)c3)c(N3CCC4(C[C@@H]4N)C3)c12 (stereo in doubt) [Example 1.29, 5-[4-[Trans-2-amino-5-azaspiro[2.4]heptan-5-yl]-5,6-difluoro-8-(methylamino)-9H-pyrido[2,3-b]indol-3-yl]pyridine-3-carbonitrile]	–
< 98	–	1010	–	CNc1cc(F)c(F)c2c1[nH]c1ncc(-c3cncc(C#N)c3)c(N3CCC4(C[C@H]4N)C3)c12 (stereo in doubt) [Example 1.30, 5-[4-[Cis-2-amino-5-azaspiro[2.4]heptan-5-yl]-5,6-difluoro-8-(methylamino)-9H-pyrido[2,3-b]indol-3-yl]pyridine-3-carbonitrile]	–
–	–	–	59 (≈ 147 µM)	CNc1cc(F)cc2c1[nH]c1ncc(-c3cncc(C#N)c3)c(N3CC[C@@H](N)C3)c12 [Example 1.01, 5-[4-[(3R)-3-Aminopyrrolidin-1-yl]-6-fluoro-8-(methylamino)-9H-pyrido[2,3-b]indol-3-yl]pyridine-3-carbonitrile]	–
–	–	–	> 625	CCNc1cc(F)cc2c1[nH]c1ncc(-c3cncc(C#N)c3)c(N3CCCC3CN)c12 (stereo not drawn) [Example 1.06, 5-[4-[2-(Aminomethyl)pyrrolidin-1-yl]-8-(ethylamino)-6-fluoro-9H-pyrido[2,3-b]indol-3-yl]pyridine-3-carbonitrile]	–
–	–	–	44 (≈ 98.3 µM)	CNc1cc(F)c(F)c2c1[nH]c1ncc(-c3cncc(C#N)c3)c(N3CCCC(CN)C3)c12 (stereo not drawn) [Example 1.21, 5-[4-[3-(Aminomethyl)-1-piperidyl]-5,6-difluoro-8-(methylamino)-9H-pyrido[2,3-b]indol-3-yl]pyridine-3-carbonitrile]	–
–	–	–	140 (≈ 309 µM)	CNc1cc(F)c(F)c2c1[nH]c1ncc(-c3cnc(OC)nc3)c(N3CCC(C)(CN)C3)c12 (stereo not drawn) [Example 1.36, 4-[3-(Aminomethyl)-3-methyl-pyrrolidin-1-yl]-5,6-difluoro-3-(2-methoxypyrimidin-5-yl)-N-methyl-9H-pyrido[2,3-b]indol-8-amine]	–
–	–	–	545 (≈ 1240 µM)	CNc1cc(F)c(F)c2c1[nH]c1ncc(-c3cnc(OC)nc3)c(N3CCCC3CN)c12 (stereo not drawn) [Example 1.37, 4-[2-(Aminomethyl)pyrrolidin-1-yl]-5,6-difluoro-3-(2-methoxypyrimidin-5-yl)-N-methyl-9H-pyrido[2,3-b]indol-8-amine]	–
143	< 98	1320	–	CNc1cc(F)c(F)c2c1[nH]c1ncc(-c3cncc(C#N)c3)c(N3CCC4(CCC4N)C3)c12 (stereo not drawn) [Example 1.49, 5-(4-(1-Amino-6-azaspiro[3.4]octan-6-yl)-5,6-difluoro-8-(methylamino)-9H-pyrido[2,3-b]indol-3-yl)nicotinonitrile]	–
< 98	< 98	1040	–	CNc1cc(F)c(F)c2c1[nH]c1ncc(-c3cc[nH]c(=O)c3)c(N(C)C)c12 [Example 1.51, 4-[4-(Dimethylamino)-5,6-difluoro-8-(methylamino)-9H-pyrido[2,3-b]indol-3-yl]-1H-pyridin-2-one]	–
–	–	–	196 (≈ 428 µM)	CNc1cc(F)cc2c1[nH]c1ncc(-c3cnc(OC)nc3)c(N3CC(CN)C(F)(F)C3)c12 (stereo not drawn) [Example 3.02, 4-[4-(aminomethyl)-3,3-difluoro-pyrrolidin-1-yl]-6-fluoro-3-(2-methoxypyrimidin-5-yl)-N-methyl-9H-pyrido[2,3-b]indol-8-amine]	–

The next lines start with the compound.

SMILES	IC50 (A. baumannii (ATCC17978)) [nM]	IC50 [1] [nM]	IC50 (S. aureus (ATCC29213)) [nM]	solubility thermodynamic [2, 3] [µg/mL]	solubility thermodynamic ([2]; pH 6.5, aqueous buffer) [µg/mL]
CNc1cc(F)c(F)c2c1[nH]c1ncc(-c3cnc4ccnn4c3)c(N3CC[C@H]4CN(C)C[C@H]43)c12 (relative stereo) [Example 1.50, 4-[Cis-5-methyl-2,3,3a,4,6,6a-hexahydropyrrolo[2,3-c]pyrrol-1-yl]-5,6-difluoro-N-methyl-3-pyrazolo[1,5-a]pyrimidin-6-yl-9H-pyrido[2,3-b]indol-8-amine]	< 98	< 98	369	–	–
CCNc1cc(F)cc2c1[nH]c1ncc(-c3cncc(C#N)c3)c(N3CCC4(C[C@H]4N)C3)c12 (stereo in doubt) [Example 1.11, 5-[8-(Ethylamino)-6-fluoro-4-[cis-2-amino-5-azaspiro[2.4]heptan-5-yl]-9H-pyrido[2,3-b]indol-3-yl]pyridine-3-carbonitrile]	< 98	< 98	863	–	–
CCNc1cc(Cl)cc2c1[nH]c1ncc(-c3cncc(C#N)c3)c(N3CCC(N)C3)c12 (stereo not drawn) [Example 1.03, 5-[4-(3-Aminopyrrolidin-1-yl)-6-chloro-8-(ethylamino)-9H-pyrido[2,3-b]indol-3-yl]pyridine-3-carbonitrile]	–	–	–	32.7 (≈ 75.7 µM)	–
CCNc1cc(F)cc2c1[nH]c1ncc(-c3cncc(C#N)c3)c(N3CCC(F)(CN)C3)c12 (stereo not drawn) [Example 1.10, 5-[4-[3-(Aminomethyl)-3-fluoro-pyrrolidin-1-yl]-8-(ethylamino)-6-fluoro-9H-pyrido[2,3-b]indol-3-yl]pyridine-3-carbonitrile]	< 98	< 98	312	–	–
CNc1cc(F)cc2c1[nH]c1ncc(-c3cncc(C#N)c3)c(N3CCC(F)(CN)C3)c12 (stereo not drawn) [Example 1.23, 5-[4-[3-(Aminomethyl)-3-fluoro-pyrrolidin-1-yl]-6-fluoro-8-(methylamino)-9H-pyrido[2,3-b]indol-3-yl]pyridine-3-carbonitrile]	–	–	–	30 (≈ 69.2 µM)	–
CNc1cc(F)c(F)c2c1[nH]c1ncc(-c3cnc(OC)nc3)c(N3CCC[C@@H](CN)C3)c12 [Example 1.25, 4-[(3S)-3-(Aminomethyl)-1-piperidyl]-5,6-difluoro-3-(2-methoxypyrimidin-5-yl)-N-methyl-9H-pyrido[2,3-b]indol-8-amine]	–	–	–	194 (≈ 428 µM)	–
CNc1cc(F)c(F)c2c1[nH]c1ncc(-c3cnc(OC)nc3)c(N3CCOC(CN)C3)c12 (stereo not drawn) [Example 1.33, 4-[2-(Aminomethyl)morpholin-4-yl]-5,6-difluoro-3-(2-methoxypyrimidin-5-yl)-N-methyl-9H-pyrido[2,3-b]indol-8-amine]	–	–	–	475 (≈ 1040 µM)	–
CNc1cc(F)c(F)c2c1[nH]c1ncc(-c3cncc(C#N)c3)c(N3CCCC3CN)c12 (stereo not drawn) [Example 1.38, 5-[4-[2-(Aminomethyl)pyrrolidin-1-yl]-5,6-difluoro-8-(methylamino)-9H-pyrido[2,3-b]indol-3-yl]pyridine-3-carbonitrile]	–	–	–	> 610	–
CNc1cc(F)c(F)c2c1[nH]c1ncc(-c3cncc(C#N)c3)c(N3CCC[C@@H](CN)C3)c12 [Example 1.40, 5-[4-[(3S)-3-(Aminomethyl)-1-piperidyl]-5,6-difluoro-8-(methylamino)-9H-pyrido[2,3-b]indol-3-yl]pyridine-3-carbonitrile]	–	–	–	49 (≈ 109 µM)	–
CNc1cc(F)c(F)c2c1[nH]c1ncc(-c3cncc(C#N)c3)c(N3CC4CC(C3)N4)c12 [Example 1.44, 5-(4-(3,6-Diazabicyclo[3.1.1]heptan-3-yl)-5,6-difluoro-8-(methylamino)-9H-pyrido[2,3-b]indol-3-yl)nicotinonitrile]	–	–	–	–	270 (≈ 626 µM)
CCNc1cc(F)c(C)c2c1[nH]c1ncc(-c3cncc(C#N)c3)c(N3CCC(CN)C3)c12 (stereo not drawn) [Example 1.45, 5-(4-(3-(Aminomethyl)pyrrolidin-1-yl)-8-(ethylamino)-6-fluoro-5-methyl-9H-pyrido[2,3-b]indol-3-yl)nicotinonitrile]	528	172	992	–	–
CNc1cc(F)c(F)c2c1[nH]c1ncc(-c3cncc(C#N)c3)c(N3C4CNCC3C4)c12 [Example 1.58, 5-(4-(3,6-Diazabicyclo[3.1.1]heptan-6-yl)-5,6-difluoro-8-(methylamino)-9H-pyrido[2,3-b]indol-3-yl)nicotinonitrile]	182	–	231	–	320 (≈ 742 µM)
CNc1cc(F)cc2c1[nH]c1ncc(-c3cncc(C#N)c3)c(N3C4CNCC3C4)c12 [Example 1.60, 5-(4-(3,6-Diazabicyclo[3.1.1]heptan-6-yl)-6-fluoro-8-(methylamino)-9H-pyrido[2,3-b]indol-3-yl)nicotinonitrile]	–	–	842	–	53 (≈ 128 µM)
CCNc1cc(F)cc2c1[nH]c1ncc(-c3cnc(C4(C(=O)O)CC4)nc3)c(N(C)C)c12 [Example 2.01, 1-[5-[4-(Dimethylamino)-8-(ethylamino)-6-fluoro-9H-pyrido[2,3-b]indol-3-yl]pyrimidin-2-yl]cyclopropanecarboxylic acid]	–	–	–	129 (≈ 297 µM)	–
